These results are taken from paper PMC4579270, “Identification and Characterization of an Irreversible Inhibitor of CDK2” (Chemistry & Biology, 2015).

Common to all, as to test: Dundee protein kinase screen
Common to all, as to type: biochemical

In one test the target is MNK2 (Homo sapiens, UniProt Q9HBH9). The following applies: MNK2, 1µM; read-out: %Remaining activity at 1µM NU6300. The method, then: (§1) Prior to determining its cellular activity, we carried out a screen to assess its selectivity against a panel of 131 protein kinases under conditions that would not distinguish between a reversible or irreversible mode of action. […] These 13 kinases and 29 additional kinases, selected for their known sensitivity to other inhibitors within the purine series, were then tested in a modified screening format in which the assay was repeated following a 4-hr pre-incubation (Table S3B). […] However, conformational flexibility around the active site may promote such an interaction with a residue from another part of the structure ([Martin et al., 2012]).
(§2) Table S3, Related to Figure 4. NCL-0006300 protein kinase selectivity. (A) NU6300 was tested at a single concentration of 1µM against 131 protein kinases present in a Dundee protein kinase screen (Bain et al., 2007). Values given are % activity remaining and are the average of duplicate measurements: 0-25% (red), 26-50% (yellow), 51-80% […]
(§3) (black) and above 81% (green). […]

A further test concerns the target MSK1 (Homo sapiens, UniProt O75582). The following applies: MSK1, 1µM; read-out: %Remaining activity at 1µM NU6300. How it is done:
as §1, §2, §3

The next test has as its target T1, NUAK1 (Homo sapiens, UniProt O60285).
T1 sequence (O60285 1-661): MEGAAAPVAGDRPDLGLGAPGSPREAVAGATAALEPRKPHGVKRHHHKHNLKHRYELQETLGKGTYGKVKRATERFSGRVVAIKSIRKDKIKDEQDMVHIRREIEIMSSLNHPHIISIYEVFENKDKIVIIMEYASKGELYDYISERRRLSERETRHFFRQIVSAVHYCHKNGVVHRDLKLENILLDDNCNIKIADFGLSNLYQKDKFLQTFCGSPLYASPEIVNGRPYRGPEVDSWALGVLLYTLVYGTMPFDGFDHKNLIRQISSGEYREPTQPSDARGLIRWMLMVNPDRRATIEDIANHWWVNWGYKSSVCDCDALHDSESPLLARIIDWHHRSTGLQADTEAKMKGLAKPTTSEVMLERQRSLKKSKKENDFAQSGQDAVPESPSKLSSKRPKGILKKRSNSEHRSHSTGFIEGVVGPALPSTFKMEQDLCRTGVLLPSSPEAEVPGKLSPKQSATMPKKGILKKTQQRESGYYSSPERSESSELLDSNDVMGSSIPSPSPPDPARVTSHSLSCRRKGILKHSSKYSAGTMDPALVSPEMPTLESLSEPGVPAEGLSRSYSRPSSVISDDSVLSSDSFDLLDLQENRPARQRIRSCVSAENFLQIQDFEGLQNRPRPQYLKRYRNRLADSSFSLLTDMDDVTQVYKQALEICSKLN
Particulars: NUAK1, 1µM; read-out: %Remaining activity at 1µM NU6300. The method, then: as §1, §2, §3

The next test has as its target OSR1 (Homo sapiens, UniProt O95747). The following applies: OSR1, 1µM; read-out: %Remaining activity at 1µM NU6300. The method, then: as §1, §2, §3
For the next test, the target named is PAK5 (Homo sapiens, UniProt Q9P286). The following applies: PAK5, 1µM; read-out: %Remaining activity at 1µM NU6300. How it is done: as §1, §2, §3
The next test addresses PAK6 (Homo sapiens, UniProt Q9NQU5). The following applies: PAK6, 1µM; read-out: %Remaining activity at 1µM NU6300. The method, then:
as §1, §2, §3

The subject of a further test is PHK. How it is done:
as §1, §2, §3

The next test concerns the target PIM1 (Homo sapiens, UniProt P11309). The following applies: PIM1, 1µM; read-out: %Remaining activity at 1µM NU6300. The method, then: as §1, §2, §3
Another test deals with PKCα (Homo sapiens, UniProt P17252). Particulars: read-out: %Remaining activity at 1µM NU6300. The method, then:
as §1, §2, §3

A further test addresses SIK2 (Homo sapiens, UniProt Q9H0K1). The following applies: SIK2, 1µM; read-out: %Remaining activity at 1µM NU6300. The method, then:
as §1, §2, §3

The target in the next test is STK33 (Homo sapiens, UniProt Q9BYT3). The following applies: STK33, 1µM; read-out: %Remaining activity at 1µM NU6300. How it is done: as §1, §2, §3
The next test has as its target T2, TTK (Homo sapiens, UniProt P33981).
T2 sequence (P33981 1-857): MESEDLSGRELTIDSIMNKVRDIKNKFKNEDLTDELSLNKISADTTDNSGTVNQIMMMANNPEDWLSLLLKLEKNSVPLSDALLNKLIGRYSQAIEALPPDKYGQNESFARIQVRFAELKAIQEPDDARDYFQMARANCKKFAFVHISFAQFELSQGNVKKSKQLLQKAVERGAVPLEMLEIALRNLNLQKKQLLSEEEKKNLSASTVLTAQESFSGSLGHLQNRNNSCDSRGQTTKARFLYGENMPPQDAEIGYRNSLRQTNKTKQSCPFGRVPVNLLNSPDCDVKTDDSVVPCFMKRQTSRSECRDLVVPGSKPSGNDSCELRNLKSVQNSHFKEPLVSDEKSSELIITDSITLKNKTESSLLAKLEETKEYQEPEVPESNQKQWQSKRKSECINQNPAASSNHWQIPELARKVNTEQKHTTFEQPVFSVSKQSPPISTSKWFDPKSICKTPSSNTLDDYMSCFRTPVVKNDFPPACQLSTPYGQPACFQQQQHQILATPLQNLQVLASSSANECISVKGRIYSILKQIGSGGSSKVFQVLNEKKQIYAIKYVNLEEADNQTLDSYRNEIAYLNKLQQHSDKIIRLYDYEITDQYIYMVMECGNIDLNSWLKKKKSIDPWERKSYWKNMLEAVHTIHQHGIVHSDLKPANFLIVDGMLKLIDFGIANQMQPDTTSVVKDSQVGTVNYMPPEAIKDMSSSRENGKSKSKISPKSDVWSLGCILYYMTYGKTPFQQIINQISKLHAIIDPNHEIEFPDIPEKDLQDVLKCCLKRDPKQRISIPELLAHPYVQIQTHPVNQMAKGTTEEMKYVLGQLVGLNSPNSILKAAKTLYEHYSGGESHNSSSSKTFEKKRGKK
The following applies: read-out: %Remaining activity at 1µM NU6300. How it is done:
as §1, §2, §3

The target of another test is YES1 (Homo sapiens, UniProt P07947). Particulars: YES1, 1µM; read-out: %Remaining activity at 1µM NU6300. The method, then: as §1, §2, §3
The target of a further test is p38β MAPK (Homo sapiens, UniProt Q15759). The following applies: read-out: %Remaining activity at 1µM NU6300. The method, then:
as §1, §2, §3

Sequence of MNK2 (Q9HBH9 whole entry): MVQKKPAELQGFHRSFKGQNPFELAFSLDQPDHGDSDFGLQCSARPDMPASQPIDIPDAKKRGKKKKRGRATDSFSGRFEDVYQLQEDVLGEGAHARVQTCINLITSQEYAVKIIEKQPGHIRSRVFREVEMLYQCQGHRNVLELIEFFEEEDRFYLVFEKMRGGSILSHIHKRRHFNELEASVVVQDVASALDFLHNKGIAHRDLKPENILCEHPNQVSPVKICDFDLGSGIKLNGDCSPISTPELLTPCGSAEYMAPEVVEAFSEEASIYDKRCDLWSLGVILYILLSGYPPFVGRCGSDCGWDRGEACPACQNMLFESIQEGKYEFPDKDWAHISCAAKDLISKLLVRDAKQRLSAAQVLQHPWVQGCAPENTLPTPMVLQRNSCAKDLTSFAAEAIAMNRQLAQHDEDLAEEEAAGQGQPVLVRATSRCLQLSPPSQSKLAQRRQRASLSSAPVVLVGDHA
Sequence of OSR1 (O95747 whole entry): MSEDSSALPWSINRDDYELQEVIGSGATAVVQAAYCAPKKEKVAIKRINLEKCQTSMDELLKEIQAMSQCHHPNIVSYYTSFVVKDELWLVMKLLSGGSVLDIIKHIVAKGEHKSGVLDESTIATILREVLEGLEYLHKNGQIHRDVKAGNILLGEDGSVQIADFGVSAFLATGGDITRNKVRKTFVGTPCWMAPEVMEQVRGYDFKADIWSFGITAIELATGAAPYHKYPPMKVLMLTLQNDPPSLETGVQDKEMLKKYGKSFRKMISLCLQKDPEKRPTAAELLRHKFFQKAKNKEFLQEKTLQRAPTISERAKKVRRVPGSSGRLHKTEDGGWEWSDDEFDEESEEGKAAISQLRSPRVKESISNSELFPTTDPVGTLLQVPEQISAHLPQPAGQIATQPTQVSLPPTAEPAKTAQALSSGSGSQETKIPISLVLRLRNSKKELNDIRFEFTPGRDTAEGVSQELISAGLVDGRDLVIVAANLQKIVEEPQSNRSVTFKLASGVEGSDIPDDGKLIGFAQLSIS
Sequence of YES1 (P07947 whole entry): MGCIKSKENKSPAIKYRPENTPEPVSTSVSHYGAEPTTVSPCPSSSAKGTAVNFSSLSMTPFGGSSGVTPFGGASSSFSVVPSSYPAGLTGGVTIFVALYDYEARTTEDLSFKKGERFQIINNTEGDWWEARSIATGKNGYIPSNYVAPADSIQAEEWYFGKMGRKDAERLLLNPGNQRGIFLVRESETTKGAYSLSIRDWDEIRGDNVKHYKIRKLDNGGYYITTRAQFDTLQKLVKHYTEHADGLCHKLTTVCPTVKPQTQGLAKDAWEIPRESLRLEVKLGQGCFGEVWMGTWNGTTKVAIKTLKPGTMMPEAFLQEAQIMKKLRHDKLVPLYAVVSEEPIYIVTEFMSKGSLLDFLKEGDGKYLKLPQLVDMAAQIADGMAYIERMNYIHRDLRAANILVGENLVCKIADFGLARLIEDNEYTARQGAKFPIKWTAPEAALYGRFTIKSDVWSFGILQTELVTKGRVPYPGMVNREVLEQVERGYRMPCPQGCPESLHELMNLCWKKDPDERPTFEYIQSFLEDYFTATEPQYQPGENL
Sequence of MSK1 (O75582 whole entry): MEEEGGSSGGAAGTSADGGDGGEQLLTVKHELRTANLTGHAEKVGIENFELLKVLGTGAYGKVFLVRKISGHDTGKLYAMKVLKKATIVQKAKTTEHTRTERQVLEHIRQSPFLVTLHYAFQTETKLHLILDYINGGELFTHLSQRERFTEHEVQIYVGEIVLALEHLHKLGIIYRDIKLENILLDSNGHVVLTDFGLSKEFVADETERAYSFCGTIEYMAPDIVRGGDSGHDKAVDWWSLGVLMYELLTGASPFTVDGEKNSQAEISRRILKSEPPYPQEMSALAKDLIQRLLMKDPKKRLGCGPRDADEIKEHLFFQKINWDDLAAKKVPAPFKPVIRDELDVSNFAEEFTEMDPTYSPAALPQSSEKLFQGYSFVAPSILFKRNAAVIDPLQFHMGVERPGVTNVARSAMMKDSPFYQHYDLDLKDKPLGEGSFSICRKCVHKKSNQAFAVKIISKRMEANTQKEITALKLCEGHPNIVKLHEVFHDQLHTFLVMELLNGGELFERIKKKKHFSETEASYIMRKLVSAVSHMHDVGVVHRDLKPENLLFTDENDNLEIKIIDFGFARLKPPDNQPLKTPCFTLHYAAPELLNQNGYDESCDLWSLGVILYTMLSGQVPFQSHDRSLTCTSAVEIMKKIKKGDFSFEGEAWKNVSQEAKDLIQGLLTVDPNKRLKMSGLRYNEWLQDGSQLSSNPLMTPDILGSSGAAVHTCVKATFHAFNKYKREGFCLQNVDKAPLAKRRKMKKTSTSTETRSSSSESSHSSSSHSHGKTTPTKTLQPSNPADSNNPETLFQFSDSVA
Sequence of PAK6 (Q9NQU5 whole entry): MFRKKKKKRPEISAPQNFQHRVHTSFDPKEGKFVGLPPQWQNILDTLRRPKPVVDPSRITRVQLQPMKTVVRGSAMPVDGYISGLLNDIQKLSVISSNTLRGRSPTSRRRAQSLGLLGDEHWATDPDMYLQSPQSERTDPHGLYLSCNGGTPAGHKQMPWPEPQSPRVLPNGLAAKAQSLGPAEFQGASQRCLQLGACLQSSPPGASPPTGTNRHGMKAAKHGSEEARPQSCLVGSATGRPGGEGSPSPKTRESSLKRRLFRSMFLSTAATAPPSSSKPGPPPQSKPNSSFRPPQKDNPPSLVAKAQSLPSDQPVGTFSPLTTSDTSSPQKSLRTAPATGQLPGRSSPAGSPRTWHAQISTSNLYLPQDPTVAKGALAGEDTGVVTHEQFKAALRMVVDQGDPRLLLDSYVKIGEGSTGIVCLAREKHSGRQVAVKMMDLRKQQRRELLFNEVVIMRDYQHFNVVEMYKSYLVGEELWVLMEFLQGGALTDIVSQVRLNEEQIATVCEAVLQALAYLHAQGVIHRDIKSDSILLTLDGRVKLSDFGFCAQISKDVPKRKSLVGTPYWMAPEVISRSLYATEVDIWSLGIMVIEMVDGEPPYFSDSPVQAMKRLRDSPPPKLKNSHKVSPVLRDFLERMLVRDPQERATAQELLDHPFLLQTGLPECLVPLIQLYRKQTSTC
Sequence of PAK5 (Q9P286 whole entry): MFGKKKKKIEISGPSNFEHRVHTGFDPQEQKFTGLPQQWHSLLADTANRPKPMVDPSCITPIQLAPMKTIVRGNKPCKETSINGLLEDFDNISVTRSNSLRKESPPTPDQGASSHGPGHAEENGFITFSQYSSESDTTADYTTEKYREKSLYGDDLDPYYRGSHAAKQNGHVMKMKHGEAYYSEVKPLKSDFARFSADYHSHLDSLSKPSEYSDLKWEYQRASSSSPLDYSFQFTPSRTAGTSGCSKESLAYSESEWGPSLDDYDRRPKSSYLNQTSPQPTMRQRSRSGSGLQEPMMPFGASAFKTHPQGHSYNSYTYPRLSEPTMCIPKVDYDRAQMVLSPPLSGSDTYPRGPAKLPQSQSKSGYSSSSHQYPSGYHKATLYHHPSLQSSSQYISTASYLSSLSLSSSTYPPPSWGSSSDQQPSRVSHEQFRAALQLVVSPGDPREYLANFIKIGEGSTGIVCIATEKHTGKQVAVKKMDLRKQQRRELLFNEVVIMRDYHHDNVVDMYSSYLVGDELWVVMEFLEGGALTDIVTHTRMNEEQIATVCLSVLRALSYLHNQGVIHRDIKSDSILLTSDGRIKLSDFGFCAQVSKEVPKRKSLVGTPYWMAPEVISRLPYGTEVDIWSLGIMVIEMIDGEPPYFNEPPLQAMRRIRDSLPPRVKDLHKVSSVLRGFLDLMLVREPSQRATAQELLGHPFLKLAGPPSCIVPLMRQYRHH
Sequence of p38β MAPK (Q15759 whole entry): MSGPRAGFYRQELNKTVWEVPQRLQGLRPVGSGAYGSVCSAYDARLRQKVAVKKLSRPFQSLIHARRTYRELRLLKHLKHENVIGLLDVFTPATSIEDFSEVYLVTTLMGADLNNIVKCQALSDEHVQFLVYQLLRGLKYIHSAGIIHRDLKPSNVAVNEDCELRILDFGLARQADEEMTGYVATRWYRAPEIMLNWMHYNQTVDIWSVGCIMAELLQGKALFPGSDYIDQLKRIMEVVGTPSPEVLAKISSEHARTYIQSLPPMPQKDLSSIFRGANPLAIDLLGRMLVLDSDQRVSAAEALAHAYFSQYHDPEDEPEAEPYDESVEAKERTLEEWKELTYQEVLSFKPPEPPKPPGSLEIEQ
Sequence of SIK2 (Q9H0K1 whole entry): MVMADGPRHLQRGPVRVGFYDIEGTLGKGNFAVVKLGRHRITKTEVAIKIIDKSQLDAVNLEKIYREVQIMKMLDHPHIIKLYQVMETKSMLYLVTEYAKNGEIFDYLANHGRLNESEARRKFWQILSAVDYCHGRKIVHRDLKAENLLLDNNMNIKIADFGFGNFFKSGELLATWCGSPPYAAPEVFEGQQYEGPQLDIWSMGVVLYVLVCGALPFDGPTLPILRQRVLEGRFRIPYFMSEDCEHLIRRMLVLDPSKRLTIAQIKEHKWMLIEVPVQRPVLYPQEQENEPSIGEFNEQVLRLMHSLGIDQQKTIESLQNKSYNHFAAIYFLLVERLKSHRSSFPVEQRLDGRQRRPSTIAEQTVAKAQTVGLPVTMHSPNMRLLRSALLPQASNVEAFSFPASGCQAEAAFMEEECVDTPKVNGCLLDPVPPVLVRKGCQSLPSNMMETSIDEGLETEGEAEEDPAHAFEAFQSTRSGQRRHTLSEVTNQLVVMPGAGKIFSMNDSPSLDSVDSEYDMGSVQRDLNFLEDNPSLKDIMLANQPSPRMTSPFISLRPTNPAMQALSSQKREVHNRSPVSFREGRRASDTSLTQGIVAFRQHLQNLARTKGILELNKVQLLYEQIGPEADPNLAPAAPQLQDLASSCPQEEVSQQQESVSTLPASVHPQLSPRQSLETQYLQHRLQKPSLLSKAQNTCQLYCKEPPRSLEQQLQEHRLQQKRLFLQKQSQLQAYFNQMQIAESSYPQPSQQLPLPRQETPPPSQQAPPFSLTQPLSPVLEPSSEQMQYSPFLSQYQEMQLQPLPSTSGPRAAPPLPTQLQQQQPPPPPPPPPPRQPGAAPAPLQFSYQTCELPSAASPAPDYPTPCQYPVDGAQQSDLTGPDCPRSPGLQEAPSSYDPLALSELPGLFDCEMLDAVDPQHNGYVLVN

In general, remaining activity refers to what remains of the control signal, in per cent. For the compound `C=CS(=O)(=O)c1ccc(Nc2nc(OCC3CCCCC3)c3nc[nH]c3n2)cc1` [NU6300, 6-(cyclohexylmethoxy)-N-(4-(vinylsulfonyl)phenyl)-9H-purin-2-amine], the remaining activity at 1 µM at MNK2 stood at 91%; at MSK1, 69%; at NUAK1 it was 2%; on OSR1 it was 67%; on PAK5, 48%; at PAK6, 73%. In addition, the remaining activity at 1 µM on PIM1 turned out to be 84%; at PKCα it was 86%; on SIK2, 22%; at STK33 it was 59%; on TTK it was 29%; on YES1, 17%. Further, on p38β MAPK, the remaining activity at 1 µM was 67%. The “%Remaining activity at 1µM NU6300” value in the test on PHK is on record as 69%.
